# US20050042293A1, “Polymeric systems for drug delivery and uses thereof” (The University of British Columbia, priority 1997, published 2005)
# Where two headings read alike, the source gives them in different places.
# What was measured:
# [1] = Drug-dependent solidification: time for paste pellets to break up under stirring at 300 rpm at 37° C.; format: physicochemical; settings: 10% w/w drug in 40:60 (TB:MePEG350) paste; 1 hour at 37° C. then 300 rpm
# Experimental: Fifteen milligrams of each composition were placed in a 20 mL glass scintillation vial and cooled to 4° C. to form uniform solid pellets. Five milliliters of ice cold phosphate-buffered saline (PBS; pH 7.4) containing 0.2% bovine serum albumin (Fraction 4, Boehringer Mannheim) were placed on top of the pellet, and the vial was placed in a stationary position in a 37° C. oven for 1 hour. At this time, a stir bar was placed in the vial and stirring was commenced at 300 rpm until the paste pellet disintegrated.
# [2] = In vitro drug release from TB:MePEG350 pastes into PBS/albumin with octanol phase; format: physicochemical; settings: 10% drug-loaded TB:MePEG350 (40:60) paste
# Experimental: Fifteen milligrams of each composition were placed in 20 mL glass scintillation vials and cooled to 4° C. to form uniform solid pellets. Five milliliters of ice cold phosphate-buffered saline (PBS; pH 7.4) containing 0.2% bovine serum albumin (Fraction 4, Boehringer Mannheim) were placed on top of the pellet followed by 5 mL of octanol (Fisher Scientific). The octanol formed an upper imiscible phase on top of the PBS so that any drug released into the PBS would partition into the octanol phase.
# UV/VIS analysis was performed by determining the absorbance at the specified wavelength. Calibration graphs of the drugs in octanol were established by measuring the absorbance of a set of standards of each drug in octanol in the 0 to 50 μg/mL concentration range.
# [3] = physchem
# [4] = cited from earlier work
# [5] = test system: LNCaP cells; experiment: LNCaP cell proliferation in vitro (crystal violet, 492 nm absorbance); format: cell-based, human; settings: for % Growth: relative to control wells (100%)
# Experimental: LNCap cells are human metastatic prostate adenocarcinoma cells that are used as a model for prostate cancer (see, e.g., Pousette et al., Prostate 31:198, 1997). In one study, LNCaP cells were seeded at concentrations of 2×10^3 and 1×10^3 cells/well in 96 well plates. […] After incubation, the cells were fixed with 1% glutaraldehyde solution, and stained for 5 minutes with 0.5% crystal violet. The dye was successively eluted with 100 μl of buffer solution and the absorbance was read on a Titertek Multiskan microplate reader using a wavelength of 492 nm absorbance. Cell growth was expressed as a percentage relative to control wells in the absence of the compound (set at 100%).
# [6] = test system: LNCaP cells; experiment: Apoptosis / DNA fragmentation assay in LNCaP cells; format: cell-based, human
# [7] = single dose in humans; cited from earlier work
# [8] = Water solubility studies by the present inventors
compound,measurement,setting,value
CN(Cc1cnc2nc(N)nc(N)c2n1)c1ccc(C(=O)N[C@@H](CCC(=O)O)C(=O)O)cc1 [methotrexate],disintegration time under stirring,[1],30 s
same,encapsulated drug released,[2]; first 24 hours,almost all the encapsulated drug
same,solubility,"[3]; pH 7.4, aqueous buffer",> 500 µg/mL
O=C1c2c(O)cccc2Cc2cccc(O)c21 [Anthralin],solubility in water (in words),[4]; water,practically insoluble in water
COc1cc(/C=C/C(=O)CC(=O)/C=C/c2ccc(O)c(OC)c2)ccc1O [Curcumin],solubility in water (in words),[4]; water,practically insoluble in water
same,solubility,[3]; water,< 2 µg/mL
CC1=C(/C=C/C(C)=C/C=C/C(C)=C/C(=O)O)C(C)(C)CCC1 [Tretinoin],solubility in water (in words),[4]; water,practically insoluble in water
same,solubility in water (in words),"[4]; water, listed as tretinoin",insoluble in water
same,solubility,[3]; water,< 2 µg/mL
CC(=O)O[C@H]1C(=O)[C@@]2(C)[C@H]([C@H](OC(=O)c3ccccc3)[C@]3(O)C[C@H](OC(=O)[C@H](O)[C@@H](NC(=O)c4ccccc4)c4ccccc4)C(C)=C1C3(C)C)[C@]1(OC(C)=O)CO[C@@H]1C[C@@H]2O [Paclitaxel],492 nm Absorbance,"[5]; 0.001 nM, 5 days",0.049 ± 0.05
same,% Growth,"[5]; 0.001 nM, 5 days",100%
same,492 nm Absorbance,"[5]; 0.01 nM, 5 days",0.40 ± 0.03
same,% Growth,"[5]; 0.01 nM, 5 days",81%
same,492 nm Absorbance,"[5]; 0.05 nM, 5 days",0.36 ± 0.02
same,% Growth,"[5]; 0.05 nM, 5 days",73%
same,492 nm Absorbance,"[5]; 0.1 nM, 5 days",0.20 ± 0.03
same,% Growth,"[5]; 0.1 nM, 5 days",40%
same,492 nm Absorbance,"[5]; 1 nM, 5 days",0.025 ± 0.01
same,% Growth,"[5]; 1 nM, 5 days",5%
same,492 nm Absorbance,"[5]; 10 nM, 5 days",0.027 ± 0.01
same,% Growth,"[5]; 10 nM, 5 days",5%
same,492 nm Absorbance,"[5]; 100 nM, 5 days",0.033 ± 0.01
same,% Growth,"[5]; 100 nM, 5 days",6%
same,lowest concentration causing inhibition of LNCaP cell growth,[5]; 5 days,10 pM
same,IC50,"[5]; Homo sapiens, LNCaP, 120 h, 5 days incubation, read-out: IC50, LNCaP cell growth",~90 pM
same,DNA fragmentation (gel electrophoresis),"[6]; 100 nM, 18 hours of treatment",induced DNA fragmentation
same,apoptosis by optical microscopy,"[6]; paclitaxel treated cells, intracellular apoptotic bodies",clear evidence of apoptosis
same,solubility in water,[4]; water,1 to 2 µg/mL
same,solubility in water (in words),[4]; water,insoluble in water
same,toxic limit,[7],200 mg
same,solubility,[3]; water,< 2 µg/mL
C[C@H]1C[C@H]2[C@@H]3CCC4=CC(=O)C=C[C@]4(C)[C@@]3(F)[C@@H](O)C[C@]2(C)[C@@]1(O)C(=O)CO [Betamethasone],solubility in water,[4]; water,190 µg/mL
CC[C@@]1(O)C(=O)OCc2c1cc1n(c2=O)Cc2cc3ccccc3nc2-1 [Camptothecin],percentage of cells to which the drug was toxic,[5]; 0.001 nM,over 60%
same,492 nm Absorbance,"[5]; 0.001 nM, 5 days",0.169 ± 0.05
same,% Growth,"[5]; 0.001 nM, 5 days",36%
same,492 nm Absorbance,"[5]; 0.05 nM, 5 days",0.14 ± 0.04
same,% Growth,"[5]; 0.05 nM, 5 days",29%
same,492 nm Absorbance,"[5]; 0.1 nM, 5 days",0.10 ± 0.02
same,% Growth,"[5]; 0.1 nM, 5 days",21%
same,492 nm Absorbance,"[5]; 1 nM, 5 days",0.10 ± 0.02
same,% Growth,"[5]; 1 nM, 5 days",21%
same,492 nm Absorbance,"[5]; 10 nM, 5 days",0.088 ± 0.02
same,% Growth,"[5]; 10 nM, 5 days",17%
same,492 nm Absorbance,"[5]; 100 nM, 5 days",0.038 ± 0.01
same,% Growth,"[5]; 100 nM, 5 days",8%
same,IC50 against LNCaP cells (in words),[5]; inferred from Table 12,femtomolar concentration range
same,solubility in water,[4]; water,1 to 2 µg/mL
same,solubility in water (in words),[4]; water,insoluble in water
same,solubility,[8]; water,< 2 µg/mL
COc1cc2c(c(OC)c1OC)-c1ccc(OC)c(=O)cc1[C@@H](NC(C)=O)CC2 [colchicine],time paste pellet stayed intact under stirring,[1],2.5 min
same,solubility,"[8]; pH 7.4, aqueous buffer, water solubility in PBS/albumin, PBS/albumin (pH 7.4)",> 500 µg/mL
O=c1c(-c2ccc(O)cc2)coc2cc(O)cc(O)c12 [Genistein],total encapsulated drug released,[2]; by day 7,50%
same,solubility in water (in words),[4]; water,practically insoluble in water
same,solubility in water (in words),"[4]; water, listed as genistein",insoluble in water
same,water solubility,[8]; water,approximately 1 μg/mL
same,solubility,"[8]; water, water solubility",< 2 µg/mL
C[C@@H]1[C@H](O)[C@@H](C)/C=C/C=C/CC/C=C/C=C/C=C/C=C/C(O[C@H]2O[C@H](C)[C@@H](O)[C@H](N)[C@@H]2O)CC2O[C@](O)(CC(O)C(O)CCC(O)CC(O)CC(O)CC(=O)O[C@H]1C)CC(O)C2C(=O)O (some centres unmarked) [nystatin],solubility in water (in words),[4]; water,insoluble in water
C[C@@H]1[C@H](O)[C@@H](C)/C=C/C=C/C=C/C=C/C=C/C=C/C=C/[C@H](O[C@@H]2O[C@H](C)[C@@H](O)[C@H](N)[C@@H]2O)C[C@@H]2O[C@](O)(C[C@@H](O)C[C@@H](O)[C@H](O)CC[C@@H](O)C[C@@H](O)CC(=O)O[C@H]1C)C[C@H](O)[C@H]2C(=O)O [Amphotericin],solubility in water (in words),[4]; water at pH 6 to 7,insoluble in water
same,solubility in water (in words),[4]; water,insoluble in water
same,solubility,[3]; water,< 2 µg/mL
C[C@@H]1C[C@H]2[C@@H]3CCC4=CC(=O)C=C[C@]4(C)[C@@]3(F)[C@@H](O)C[C@]2(C)[C@@]1(O)C(=O)CO [Dexamethasone],solubility in water,[4]; water,10 µg/mL
COc1ccc2c(c1)c(CC(=O)O)c(C)n2C(=O)c1ccc(Cl)cc1 [Indomethacin],solubility in water (in words),[4]; water,practically insoluble in water
